Results from US11478533B2, “Semaglutide for use in medicine” (Novo Nordisk A/S, priority 2020, dated 2022).

System: subjects with NASH
Experiment: Clinical Trial A: liver biopsy histology (NASH-CRN, Kleiner fibrosis classification) at trial week 72
Type: in vivo, human
Conditions: for Worsening of liver fibrosis stage determined via liver biopsy at end of trial compared to baseline, Proportion of subjects: all randomised subjects
Text: NASH diagnosis may further include histological evidence of NASH with an NAFLD activity score (NAS) of more than 4. In some embodiments the term “NAFLD activity score” as used herein refers to the unweighted sum of the individual scores of steatosis (score 0-3), lobular inflammation (score 0-3), and hepatocyte ballooning (score 0-2) determined by liver biopsy histology according to NASH-CRN; thus, NAS is in the range of 0 to 8. In some embodiments NASH-CRN is as published in Kleiner et al. Hepatology. 2005; 41(6):1313-21 (e.g. Table 1) and Brunt et al. World J Gastroenterol. 2010; 16(42):5286-96. In some embodiments the term “steatosis” as used herein refers to liver biopsy histology showing low- to medium-power evaluation of parenchymal involvement by steatosis and is one of the stages with a score selected from the group consisting of “0” (<5%), “1” (5%-33%), “2” (>33%-66%), and “3” (>66%) according to NASH-CRN. In some embodiments the term “lobular inflammation” as used herein refers to the overall assessment of all inflammatory foci in liver biopsy histology and is one of the stages with a score selected from the group consisting of “0” (no foci), “1” (<2 foci per 200 times magnification field), “2” (2-4 foci per 200 times magnification field) and “3” (>4 foci per 200 times magnification field) according to NASH-CRN. In some embodiments the term “hepatocyte ballooning” as used herein refers to liver biopsy histology showing one of the stages with a score selected from the group consisting of “0” (none), “1” (few balloon cells) and “2” (many cells/prominent ballooning) according to NASH-CRN.
In some embodiments the method of the invention provides resolution of NASH. In some embodiments the term “resolution of NASH” as used herein refers to the subject no longer fulfilling the criteria for a NASH diagnosis. In some embodiments the term “resolution of NASH” refers to a liver biopsy histology showing (i) no more than mild residual inflammatory cells (i.e. inflammation score 0 or 1 according to NASH-CRN), (ii) no hepatocyte ballooning (i.e. hepatocyte ballooning score of 0 according to NASH-CRN), and (iii) any value for steatosis (i.e. steatosis score of 0-3 according to NASH-CRN). In some embodiments the method of the invention provides an improvement of lobular inflammation and/or hepatocyte ballooning. In some embodiments the term “improvement of lobular inflammation” as used herein refers to reduction by at least one stage of lobular inflammation (score 0-3) as defined herein; for example, reduction from a score 3 to a score 1. In some embodiments the term “improvement of hepatocyte ballooning” as used herein refers to reduction by at least one stage of hepatocyte ballooning (score 0-2) as defined herein; for example, reduction from a score 2 to a score 0.
In some embodiments the term “fibrosis” as used herein refers to the fibrosis stage in NASH described by the Kleiner fibrosis classification. In some embodiments the terms “Kleiner fibrosis classification” or “fibrosis stage” are used interchangeably herein and refer to the classification as defined in Kleiner et al. Hepatology, 2005; 41(6):1313-21 which consists of the stages selected from the group consisting of “0” (absence of fibrosis), “1” (portal/perisinusoidal fibrosis), “2” (perisinusoidal and portal/periportal fibrosis), “3” (septal or bridging fibrosis), and “4” (cirrhosis). In some embodiments the method of the invention provides no worsening of liver fibrosis. In some embodiments the terms “no worsening of liver fibrosis” or “no worsening of liver fibrosis stage” as used interchangeably herein refers to no increase of at least one stage of the Kleiner fibrosis classification.
A 72-week, randomised, double-blind, placebo-controlled, six-armed, parallel group, multicentre, multi-national phase 2 trial comparing once daily (OD) administration of semaglutide in three different doses (0.1 mg, 0.2 mg and 0.4 mg) with placebo in subjects with NASH was carried out. […]

[1] = 0.1 mg OD s.c., week 72, Fibrosis stage 1-3 at baseline (all randomised subjects)
[2] = 0.1 mg OD s.c., week 72, Fibrosis stage 1 at baseline
[3] = 0.1 mg OD s.c., week 72, Fibrosis stage 2 at baseline
[4] = 0.1 mg OD s.c., week 72, Fibrosis stage 2 or 3 at baseline
[5] = 0.1 mg OD s.c., week 72, Fibrosis stage 3 at baseline
[6] = 0.2 mg OD s.c., week 72, Fibrosis stage 1-3 at baseline (all randomised subjects)
[7] = 0.2 mg OD s.c., week 72, Fibrosis stage 1 at baseline
[8] = 0.2 mg OD s.c., week 72, Fibrosis stage 2 at baseline
[9] = 0.2 mg OD s.c., week 72, Fibrosis stage 2 or 3 at baseline
[10] = 0.2 mg OD s.c., week 72, Fibrosis stage 3 at baseline
[11] = 0.4 mg OD s.c., week 72, Fibrosis stage 1-3 at baseline (all randomised subjects)
[12] = 0.4 mg OD s.c., week 72, Fibrosis stage 1 at baseline
[13] = 0.4 mg OD s.c., week 72, Fibrosis stage 2 at baseline
[14] = 0.4 mg OD s.c., week 72, Fibrosis stage 2 or 3 at baseline
[15] = 0.4 mg OD s.c., week 72, Fibrosis stage 3 at baseline
[16] = all tested semaglutide dosages, liver fibrosis stage 1-3 at baseline

“N-epsilon26-[2-(2-{2-[2-(2-{2-[(S)-4-Carboxy-4-(17-carboxyheptadecanoyl-amino)butyrylamino]ethoxy}ethoxy)acetylamino]ethoxy}ethoxy)acetyl] [Aib8, Arg34]GLP-1-(7-37) [Semaglutide]” was tested, and the “Improvement of hepatocyte ballooning at end of trial compared to baseline, proportion of subjects” value [1] was 61.3%, the “Improvement of lobular inflammation at end of trial compared to baseline, proportion of subjects” value [1] was 41.3% and the “Improvement of steatosis at end of trial compared to baseline, proportion of subjects” value [1] was 52.5%. For the same substance, the “Resolution of NASH and no worsening in liver fibrosis at end of trial, proportion of subjects” value [1] was 43.8 (0.0023) %, the “Resolution of NASH at end of trial, proportion of subjects” value (shortened to “Resolution of NASH at end of trial”) [1] was 47.5% and the “Improvement of hepatocyte ballooning at end of trial compared to baseline, proportion of subjects” value [2] was 60.9%. The “Improvement of lobular inflammation at end of trial compared to baseline, proportion of subjects” value [2] was 34.8%, the “Improvement of steatosis at end of trial compared to baseline, proportion of subjects” value [2] was 56.5% and the “Resolution of NASH and no worsening in liver fibrosis at end of trial, proportion of subjects” value [2] was 52.2%. For the same substance, the “Resolution of NASH at end of trial” value [2] was 60.9%, the “Improvement of hepatocyte ballooning at end of trial compared to baseline, proportion of subjects” value [3] was 66.7% and the “Improvement of lobular inflammation at end of trial compared to baseline, proportion of subjects” value [3] was 33.3%. The “Improvement of steatosis at end of trial compared to baseline, proportion of subjects” value [3] was 61.1%, the “Resolution of NASH and no worsening in liver fibrosis at end of trial, proportion of subjects” value [3] was 55.6% and the “Resolution of NASH at end of trial” value [3] was 55.6%. For the same substance, the “Improvement of hepatocyte ballooning at end of trial compared to baseline, proportion of subjects” value [4] was 61.4%, the “Improvement of lobular inflammation at end of trial compared to baseline, proportion of subjects” value [4] was 43.9% and the “Improvement of steatosis at end of trial compared to baseline, proportion of subjects” value [4] was 50.9%. The “Resolution of NASH and no worsening in liver fibrosis at end of trial, proportion of subjects” value [4] was 40.4 (0.0100) %, the “Resolution of NASH at end of trial” value [4] was 42.1% and the “Improvement of hepatocyte ballooning at end of trial compared to baseline, proportion of subjects” value [5] was 59.0%. For the same substance, the “Improvement of lobular inflammation at end of trial compared to baseline, proportion of subjects” value [5] was 48.7%, the “Improvement of steatosis at end of trial compared to baseline, proportion of subjects” value [5] was 46.2% and the “Resolution of NASH and no worsening in liver fibrosis at end of trial, proportion of subjects” value [5] was 33.3%. For the same substance, the “Resolution of NASH at end of trial” value [5] was 35.9%, the “Worsening of liver fibrosis stage determined via liver biopsy at end of trial compared to baseline, Proportion of subjects” value (0.1 mg OD s.c., week 72) was 10.0% and the “Improvement of hepatocyte ballooning at end of trial compared to baseline, proportion of subjects” value [6] was 70.5%. For the same substance, the “Improvement of lobular inflammation at end of trial compared to baseline, proportion of subjects” value [6] was 47.4%, the “Improvement of steatosis at end of trial compared to baseline, proportion of subjects” value [6] was 60.3% and the “Resolution of NASH and no worsening in liver fibrosis at end of trial, proportion of subjects” value [6] was 38.5 (0.0138) %. For the same substance, the “Resolution of NASH at end of trial” value [6] was 46.2%, the “Improvement of hepatocyte ballooning at end of trial compared to baseline, proportion of subjects” value [7] was 84.2% and the “Improvement of lobular inflammation at end of trial compared to baseline, proportion of subjects” value [7] was 42.1%. For the same substance, the “Improvement of steatosis at end of trial compared to baseline, proportion of subjects” value [7] was 63.2%, the “Resolution of NASH and no worsening in liver fibrosis at end of trial, proportion of subjects” value [7] was 47.4% and the “Resolution of NASH at end of trial” value [7] was 68.4%. The “Improvement of hepatocyte ballooning at end of trial compared to baseline, proportion of subjects” value [8] was 72.2%, the “Improvement of lobular inflammation at end of trial compared to baseline, proportion of subjects” value [8] was 38.9% and the “Improvement of steatosis at end of trial compared to baseline, proportion of subjects” value [8] was 66.7%. For the same substance, the “Resolution of NASH and no worsening in liver fibrosis at end of trial, proportion of subjects” value [8] was 55.6%, the “Resolution of NASH at end of trial” value [8] was 61.1% and the “Improvement of hepatocyte ballooning at end of trial compared to baseline, proportion of subjects” value [9] was 66.1%. For the same substance, the “Improvement of lobular inflammation at end of trial compared to baseline, proportion of subjects” value [9] was 49.2%, the “Improvement of steatosis at end of trial compared to baseline, proportion of subjects” value [9] was 59.3% and the “Resolution of NASH and no worsening in liver fibrosis at end of trial, proportion of subjects” value [9] was 35.6 (0.0359) %. The “Resolution of NASH at end of trial” value [9] was 39.0%, the “Improvement of hepatocyte ballooning at end of trial compared to baseline, proportion of subjects” value [10] was 63.4% and the “Improvement of lobular inflammation at end of trial compared to baseline, proportion of subjects” value [10] was 53.7%. For the same substance, the “Improvement of steatosis at end of trial compared to baseline, proportion of subjects” value [10] was 56.1%, the “Resolution of NASH and no worsening in liver fibrosis at end of trial, proportion of subjects” value [10] was 26.8% and the “Resolution of NASH at end of trial” value [10] was 29.3%. The “Worsening of liver fibrosis stage determined via liver biopsy at end of trial compared to baseline, Proportion of subjects” value (0.2 mg OD s.c., week 72) was 7.7%, the “Improvement of hepatocyte ballooning at end of trial compared to baseline, proportion of subjects” value [11] was 74.4% and the “Improvement of lobular inflammation at end of trial compared to baseline, proportion of subjects” value [11] was 37.8%. For the same substance, the “Improvement of steatosis at end of trial compared to baseline, proportion of subjects” value [11] was 63.4%, the “Resolution of NASH and no worsening in liver fibrosis at end of trial, proportion of subjects” value [11] was 56.1 (<0.0001) % and the “Resolution of NASH at end of trial” value [11] was 61.0%. The “Improvement of hepatocyte ballooning at end of trial compared to baseline, proportion of subjects” value [12] was 57.7%, the “Improvement of lobular inflammation at end of trial compared to baseline, proportion of subjects” value [12] was 15.4% and the “Improvement of steatosis at end of trial compared to baseline, proportion of subjects” value [12] was 53.8%. The “Resolution of NASH and no worsening in liver fibrosis at end of trial, proportion of subjects” value [12] was 50.0%, the “Resolution of NASH at end of trial” value [12] was 53.8% and the “Improvement of hepatocyte ballooning at end of trial compared to baseline, proportion of subjects” value [13] was 78.6%. The “Improvement of lobular inflammation at end of trial compared to baseline, proportion of subjects” value [13] was 50.0%, the “Improvement of steatosis at end of trial compared to baseline, proportion of subjects” value [13] was 71.4% and the “Resolution of NASH and no worsening in liver fibrosis at end of trial, proportion of subjects” value [13] was 64.3%. For the same substance, the “Resolution of NASH at end of trial” value [13] was 78.6%, the “Improvement of hepatocyte ballooning at end of trial compared to baseline, proportion of subjects” value [14] was 82.1% and the “Improvement of lobular inflammation at end of trial compared to baseline, proportion of subjects” value [14] was 48.2%. The “Improvement of steatosis at end of trial compared to baseline, proportion of subjects” value [14] was 67.9%, the “Resolution of NASH and no worsening in liver fibrosis at end of trial, proportion of subjects” value [14] was 58.9 (<0.0001) % and the “Resolution of NASH at end of trial” value [14] was 64.3%. The “Improvement of hepatocyte ballooning at end of trial compared to baseline, proportion of subjects” value [15] was 83.3%, the “Improvement of lobular inflammation at end of trial compared to baseline, proportion of subjects” value [15] was 47.6% and the “Improvement of steatosis at end of trial compared to baseline, proportion of subjects” value [15] was 66.7%. For the same substance, the “Resolution of NASH and no worsening in liver fibrosis at end of trial, proportion of subjects” value [15] was 75.1%, the “Resolution of NASH at end of trial” value [15] was 59.5% and the “Worsening of liver fibrosis stage determined via liver biopsy at end of trial compared to baseline, Proportion of subjects” value (0.4 mg OD s.c., week 72) was 4.9%. The “Worsening of liver fibrosis stage compared to placebo (in words)” value (all semaglutide dosages tested, week 72) was “lower proportion of subjects”, the “Resolution of NASH and no worsening in liver fibrosis compared to placebo (in words)” value [16] was “achieved by significantly more subjects compared to placebo” and the “Resolution of NASH compared to placebo (in words)” value [16] was “achieved by significantly more subjects compared to placebo”.
